Experimental data taken from patent publication US10213433B2 (AbbVie Inc., priority 2010, dated 2019).

Target: Bcl-2 protein (Homo sapiens (Human), UniProt P10415)
Assay: Bcl-2 binding TR-FRET (Time-Resolved Fluorescence-Resonance-Energy-Transfer) assay
Details: inhibition constant for binding to Bcl-2 protein
Excerpt: The smaller the Ki value, the greater is the binding affinity.

Chain of Bcl-2 protein (P10415 whole entry): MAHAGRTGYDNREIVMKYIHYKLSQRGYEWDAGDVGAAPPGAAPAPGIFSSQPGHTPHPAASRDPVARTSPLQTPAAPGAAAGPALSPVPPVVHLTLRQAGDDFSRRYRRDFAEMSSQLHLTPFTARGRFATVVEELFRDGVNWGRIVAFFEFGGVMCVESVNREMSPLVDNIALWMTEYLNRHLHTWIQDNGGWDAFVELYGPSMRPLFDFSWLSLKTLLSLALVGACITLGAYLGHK

| Structure (SMILES) | Ki |
| --- | --- |
| O=C(NS(=O)(=O)c1ccc(NCCCN2CCOCC2)c([N+](=O)[O-])c1)c1ccc(N2CCN(Cc3ccccc3-c3ccc(Cl)cc3)CC2)cc1Oc1cnc2[nH]ccc2c1 [Compound 2, 4-{4-[(4′-chloro-1,1′-biphenyl-2-yl)methyl]piperazin-1-yl}-N-({4-[(3-morpholin-4-ylpropyl)amino]-3-nitrophenyl}sulfonyl)-2-(1H-pyrrolo[2,3-b]pyridin-5-yloxy)benzamide] | < 0.01 nM |
| CN1CCC(Nc2ccc(S(=O)(=O)NC(=O)c3ccc(N4CCN(CC5=C(c6ccc(Cl)cc6)CC(C)(C)CC5)CC4)cc3Oc3cnc4[nH]ccc4c3)cc2[N+](=O)[O-])CC1 [Compound 4, 4-(4-{[2-(4-chlorophenyl)-4,4-dimethylcyclohex-1-en-1-yl]methyl}piperazin-1-yl)-N-({4-[(1-methylpiperidin-4-yl)amino]-3-nitrophenyl}sulfonyl)-2-(1H-pyrrolo[2,3-b]pyridin-5-yloxy)benzamide] | < 0.01 nM |
| COCCNc1ccc(S(=O)(=O)NC(=O)c2ccc(N3CCN(CC4=C(c5ccc(Cl)cc5)CC(C)(C)CC4)CC3)cc2Oc2cnc3[nH]ccc3c2)cc1[N+](=O)[O-] [Compound 10, 4-(4-{[2-(4-chlorophenyl)-4,4-dimethylcyclohex-1-en-1-yl]methyl}piperazin-1-yl)-N-({4-[(2-methoxyethyl)amino]-3-nitrophenyl}sulfonyl)-2-(1H-pyrrolo[2,3-b]pyridin-5-yloxy)benzamide] | < 0.01 nM |
| CC1(C)CCC(CN2CCN(c3ccc(C(=O)NS(=O)(=O)c4ccc(NC[C@H]5CCCOC5)c([N+](=O)[O-])c4)c(Oc4cnc5[nH]ccc5c4)c3)CC2)=C(c2ccc(Cl)cc2)C1 [Compound 13, 4-(4-{[2-(4-chlorophenyl)-4,4-dimethylcyclohex-1-en-1-yl]methyl}piperazin-1-yl)-N-[(3-nitro-4-{[(3R)-tetrahydro-2H-pyran-3-ylmethyl]amino}phenyl)sulfonyl]-2-(1H-pyrrolo[2,3-b]pyridin-5-yloxy)benzamide] | < 0.01 nM |
| CC1(C)CC(c2ccc(Cl)cc2)=C(CN2CCN(c3ccc(C(=O)NS(=O)(=O)c4ccc(NCC5CCOCC5)c([N+](=O)[O-])c4)c(Oc4cnc5[nH]ccc5c4)c3)CC2)CO1 [Compound 15, 4-(4-{[4-(4-chlorophenyl)-6,6-dimethyl-5,6-dihydro-2H-pyran-3-yl]methyl}piperazin-1-yl)-N-({3-nitro-4-[(tetrahydro-2H-pyran-4-ylmethyl)amino]phenyl}sulfonyl)-2-(1H-pyrrolo[2,3-b]pyridin-5-yloxy)benzamide] | < 0.01 nM |
| CC1(C)CCC(CN2CCN(c3ccc(C(=O)NS(=O)(=O)c4ccc(NCC5COCCO5)c([N+](=O)[O-])c4)c(Oc4cnc5[nH]ccc5c4)c3)CC2)=C(c2ccc(Cl)cc2)C1 (centres unmarked) [Compound 25, 4-(4-{[2-(4-chlorophenyl)-4,4-dimethylcyclohex-1-en-1-yl]methyl}piperazin-1-yl)-N-({4-[(1,4-dioxan-2-ylmethyl)amino]-3-nitrophenyl}sulfonyl)-2-(1H-pyrrolo[2,3-b]pyridin-5-yloxy)benzamide] | < 0.01 nM |
| CC1(C)CCC(CN2CCN(c3ccc(C(=O)NS(=O)(=O)c4ccc(OC[C@@H]5COCCO5)c([N+](=O)[O-])c4)c(Oc4cnc5[nH]ccc5c4)c3)CC2)=C(c2ccc(Cl)cc2)C1 [Compound 28, 4-(4-{[2-(4-chlorophenyl)-4,4-dimethylcyclohex-1-en-1-yl]methyl}piperazin-1-yl)-N-({4-[(2S)-1,4-dioxan-2-ylmethoxy]-3-nitrophenyl}sulfonyl)-2-(1H-pyrrolo[2,3-b]pyridin-5-yloxy)benzamide] | < 0.01 nM |
| CC1(C)CCC(CN2CCN(c3ccc(C(=O)NS(=O)(=O)c4ccc(OC[C@H]5COCCO5)c([N+](=O)[O-])c4)c(Oc4cnc5[nH]ccc5c4)c3)CC2)=C(c2ccc(Cl)cc2)C1 [Compound 30, 4-(4-{[2-(4-chlorophenyl)-4,4-dimethylcyclohex-1-en-1-yl]methyl}piperazin-1-yl)-N-({4-[(2R)-1,4-dioxan-2-ylmethoxy]-3-nitrophenyl}sulfonyl)-2-(1H-pyrrolo[2,3-b]pyridin-5-yloxy)benzamide] | < 0.01 nM |
| CC1(C)CC(c2ccc(Cl)cc2)=C(CN2CCN(c3ccc(C(=O)NS(=O)(=O)c4ccc(NCC5COCCO5)c([N+](=O)[O-])c4)c(Oc4cnc5[nH]ccc5c4)c3)CC2)CO1 (centres unmarked) [Compound 31, 4-(4-{[4-(4-chlorophenyl)-6,6-dimethyl-5,6-dihydro-2H-pyran-3-yl]methyl}piperazin-1-yl)-N-({4-[(1,4-dioxan-2-ylmethyl)amino]-3-nitrophenyl}sulfonyl)-2-(1H-pyrrolo[2,3-b]pyridin-5-yloxy)benzamide] | < 0.01 nM |
| CC1(C)CC(c2ccc(Cl)cc2)=C(CN2CCN(c3ccc(C(=O)NS(=O)(=O)c4ccc(OCC5COCCO5)c([N+](=O)[O-])c4)c(Oc4cnc5[nH]ccc5c4)c3)CC2)CO1 (centres unmarked) [Compound 32, 4-(4-{[4-(4-chlorophenyl)-6,6-dimethyl-5,6-dihydro-2H-pyran-3-yl]methyl}piperazin-1-yl)-N-{[4-(1,4-dioxan-2-ylmethoxy)-3-nitrophenyl]sulfonyl}-2-(1H-pyrrolo[2,3-b]pyridin-5-yloxy)benzamide] | < 0.01 nM |
| CC1(C)CC(c2ccc(Cl)cc2)=C(CN2CCN(c3ccc(C(=O)NS(=O)(=O)c4cnc(OCC5CCOCC5)c(C#N)c4)c(Oc4cnc5[nH]ccc5c4)c3)CC2)CO1 [Compound 35, 4-(4-{[4-(4-chlorophenyl)-6,6-dimethyl-5,6-dihydro-2H-pyran-3-yl]methyl}piperazin-1-yl)-N-{[5-cyano-6-(tetrahydro-2H-pyran-4-ylmethoxy)pyridin-3-yl]sulfonyl}-2-(1H-pyrrolo[2,3-b]pyridin-5-yloxy)benzamide] | < 0.01 nM |
| CC1(C)CCC(CN2CCN(c3ccc(C(=O)NS(=O)(=O)c4cnc(OCC5CCOCC5)c(Cl)c4)c(Oc4cnc5[nH]ccc5c4)c3)CC2)=C(c2ccc(Cl)cc2)C1 [Compound 40, 4-(4-{[2-(4-chlorophenyl)-4,4-dimethylcyclohex-1-en-1-yl]methyl}piperazin-1-yl)-N-{[5-chloro-6-(tetrahydro-2H-pyran-4-ylmethoxy)pyridin-3-yl]sulfonyl}-2-(1H-pyrrolo[2,3-b]pyridin-5-yloxy)benzamide] | < 0.01 nM |
| CC1(C)CC(c2ccc(Cl)cc2)=C(CN2CCN(c3ccc(C(=O)NS(=O)(=O)c4cnc(OCC5CCOCC5)c(Cl)c4)c(Oc4cnc5[nH]ccc5c4)c3)CC2)CO1 [Compound 41, 4-(4-{[4-(4-chlorophenyl)-6,6-dimethyl-5,6-dihydro-2H-pyran-3-yl]methyl}piperazin-1-yl)-N-{[5-chloro-6-(tetrahydro-2H-pyran-4-ylmethoxy)pyridin-3-yl]sulfonyl}-2-(1H-pyrrolo[2,3-b]pyridin-5-yloxy)benzamide] | < 0.01 nM |
| CN1CCC(Nc2ccc(S(=O)(=O)NC(=O)c3ccc(N4CCN(CC5=C(c6ccc(Cl)cc6)CC(C)(C)OC5)CC4)cc3Oc3cnc4[nH]ccc4c3)cc2S(=O)(=O)C(F)(F)F)CC1 [Compound 45, 4-(4-{[4-(4-chlorophenyl)-6,6-dimethyl-5,6-dihydro-2H-pyran-3-yl]methyl}piperazin-1-yl)-N-({4-[(1-methylpiperidin-4-yl)amino]-3-[(trifluoromethyl)sulfonyl]phenyl}sulfonyl)-2-(1H-pyrrolo[2,3-b]pyridin-5-yloxy)benzamide] | < 0.01 nM |
